Source: publication PMC6407587, “Inhibition potential of phenolic constituents from the aerial parts of Tetrastigma hemsleyanum against soluble epoxide hydrolase and nitric oxide synthase” (Journal of Enzyme Inhibition and Medicinal Chemistry, 2019)

Legend:
sEH [1] = biological target: T1, sEH (Homo sapiens, UniProt P34913); assay: sEH inhibitory activity, fluorescence assay with PHOME substrate; format: biochemical; settings: for IC50: PHOME substrate, dose-dependent response curve
T1 sequence (P34913 1-555): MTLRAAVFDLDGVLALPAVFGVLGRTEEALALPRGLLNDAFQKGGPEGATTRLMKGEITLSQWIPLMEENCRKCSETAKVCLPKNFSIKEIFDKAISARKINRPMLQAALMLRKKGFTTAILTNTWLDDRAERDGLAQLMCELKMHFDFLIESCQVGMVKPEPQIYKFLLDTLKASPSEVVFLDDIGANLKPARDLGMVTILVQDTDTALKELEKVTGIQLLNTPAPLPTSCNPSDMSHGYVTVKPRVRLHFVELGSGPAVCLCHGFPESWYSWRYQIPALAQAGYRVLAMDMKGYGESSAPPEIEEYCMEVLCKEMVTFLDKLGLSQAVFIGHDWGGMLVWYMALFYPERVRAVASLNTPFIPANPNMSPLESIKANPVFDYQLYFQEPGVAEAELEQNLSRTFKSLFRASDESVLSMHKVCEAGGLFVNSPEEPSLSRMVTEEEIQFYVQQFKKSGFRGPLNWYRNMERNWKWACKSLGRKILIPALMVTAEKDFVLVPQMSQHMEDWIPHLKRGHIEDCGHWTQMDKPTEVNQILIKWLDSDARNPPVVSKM

[2] = tested on: LPS-induced NO production in macrophage RAW 264.7 cells (iNOS); assay: Inhibition of LPS-induced NO production in RAW 264.7 macrophages (Griess reaction, measure of iNOS activity); format: cell-based; settings: for inhibition at 50 µM: read-out: Inhibition of NO production at 50 µM (%);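 on all read-outs here: cells pretreated with compound for 2 h, then stimulated 24 h with LPS at 500 ng/ml, supernatant nitrite quantified by absorbance at 550 nm against a nitrite standard curve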
X-box binding protein 1 = tested on: X-box binding protein 1; set-up: method as in PMID 26475664; settings: related to ulcerative colitis; cited from earlier work
sEH [3] = biological target: T1, sEH; assay: sEH binding mechanism, Dixon and Lineweaver-Burk plots at different substrate and inhibitor concentrations; format: biochemical; settings: for Type of sEH inhibition: Dixon / Lineweaver-Burk plots
[4] = 100 µM compound, tested three times
[5] = Mus musculus, 50 µM compound, LPS-stimulated RAW264.7 cells
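Wherever Cytotoxicity in RAW 264.7 cells (MTT) is given: viability gauged by mitochondrial reductase turning MTT into formazan, optical density read at 570 nm, with untreated control cells set as 100% viability.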

| SMILES | Cytotoxicity in RAW 264.7 cells (MTT) (RAW 264.7 cells) | sEH inhibitory activity (in words) (sEH [1]) | inhibition at 100 µM (sEH [1]; [4]) | inhibition at 50 µM [2, 5] | Transcriptional activation of X-box binding protein 1 (X-box binding protein 1) | Inhibition on sEH at 100 µM (%) (sEH [1]; [4]) | IC50 (sEH [1]) | Type of sEH inhibition (sEH [3]) | Inhibition of NO production at 50 µM (%) ([2]; 50 µM compound, LPS-stimulated RAW264.7 cells) | Ki (sEH [3]; Dixon plots) | IC50 ([2]; Mus musculus, RAW264.7, LPS-stimulated RAW264.7 cells, means ± SE, n = 3) |
| --- | --- | --- | --- | --- | --- | --- | --- | --- | --- | --- | --- |
| COc1cc(C2c3cc(O)c(OC)cc3CC(CO)C2COC2OC(C)C(O)C(O)C2O)ccc1O (centres unmarked) [Compound 18] | did not exhibit significant cytotoxicity | weak inhibitory activity | 52.3 ± 2.6% | 32.1% | remarkable transcriptional activation |  |  |  |  |  |  |
| C[C@@H]1O[C@@H](OC[C@H]2O[C@@H](Oc3c(-c4ccc(O)c(O)c4)oc4cc(O)cc(O)c4c3=O)[C@H](O)[C@@H](O)[C@@H]2O)[C@H](O)[C@H](O)[C@H]1O [Compound 16] | did not exhibit significant cytotoxicity |  |  |  |  | 95.2 ± 0.2% | 6.2 ± 0.1 µM | non-competitive | 26.2% |  |  |
| O=c1cc(-c2ccc(O)cc2)oc2cc(O)cc(O)c12 [Compound 12, apigenin] | did not exhibit significant cytotoxicity |  | 92.4 ± 2% | 98.9% |  |  | 7.2 ± 0.3 µM | Non-competitive |  | 24.4 µM | 12.2 ± 0.1 µM |
